{
  "source": "patent US9657080B2",
  "about": "“Methods for treating diseases with peptides that inhibit IGF-1” (Universite Pierre et Marie Curie (Paris 6), priority 2009, dated 2017)",
  "system": "female rats",
  "assay": "Subcutaneous administration to female rats: GH effects and anti-peptide antibody",
  "type": "in vivo",
  "note": "Where no end group is shown, it is not given here.",
  "data": [
    {"substance": "Ac-GTSDRVYEKLAGSKNFFWKTFTSS [P7, Acetyl-GTSDRVYEKLAGSKNFFWKTFTSS]", "values": [
      {"measurement": "anti-peptide antibody induction", "value": "without inducing, nevertheless, anti-peptide antibody"}
    ]}
  ]
}
